Reference: US9062124B2, “GIP-based mixed agonists for treatment of metabolic disorders and obesity” (priority 2008, dated 2015)
Where two headings read alike, the source gives them in different places. Values belong to the compound of their own block, whether it stands above or below them. Where a SMILES comes first, the peptide text is derived from it. Bridges are numbered along the chain shown (N, C = ends). Where no end group is shown, it is not given here. [ ]: non-standard residue; d: D form. The star is where a group is joined. PEG 40 kDa = PEG (40 kDa) covalently attached to Cys; Stearoyl = CCCCCCCCCCCCCCCCCC(=O)*; Aib = CC(C)(N)C(=O)O

Columns and labels:
Assay type in all cases: cell-based
GIP receptor = target: T1, GIP receptor (Homo sapiens, UniProt P48546); test: cAMP synthesis functional assay (firefly luciferase reporter in HEK293 cells), GIP receptor
T1 construct: expressed in transfected cells; host or cells: HEK293
T1 sequence (P48546 22-466): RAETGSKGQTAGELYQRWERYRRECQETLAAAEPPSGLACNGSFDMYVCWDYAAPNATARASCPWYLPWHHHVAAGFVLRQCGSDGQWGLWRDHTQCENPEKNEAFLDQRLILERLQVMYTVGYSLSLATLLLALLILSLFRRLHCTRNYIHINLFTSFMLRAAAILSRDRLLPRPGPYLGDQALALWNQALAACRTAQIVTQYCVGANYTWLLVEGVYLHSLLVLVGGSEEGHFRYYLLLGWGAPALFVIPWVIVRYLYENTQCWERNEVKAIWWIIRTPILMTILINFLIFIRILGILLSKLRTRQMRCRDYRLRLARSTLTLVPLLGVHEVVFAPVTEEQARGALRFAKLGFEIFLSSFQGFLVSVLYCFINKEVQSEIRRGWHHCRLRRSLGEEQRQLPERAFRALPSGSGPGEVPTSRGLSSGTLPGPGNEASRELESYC

GLP-1 receptor = target: T2, GLP-1 receptor (Homo sapiens, UniProt P43220); test: cAMP synthesis functional assay (firefly luciferase reporter in HEK293 cells), GLP-1 receptor
T2 construct: expressed in transfected cells; host or cells: HEK293
T2 sequence (P43220 24-463, species assumed): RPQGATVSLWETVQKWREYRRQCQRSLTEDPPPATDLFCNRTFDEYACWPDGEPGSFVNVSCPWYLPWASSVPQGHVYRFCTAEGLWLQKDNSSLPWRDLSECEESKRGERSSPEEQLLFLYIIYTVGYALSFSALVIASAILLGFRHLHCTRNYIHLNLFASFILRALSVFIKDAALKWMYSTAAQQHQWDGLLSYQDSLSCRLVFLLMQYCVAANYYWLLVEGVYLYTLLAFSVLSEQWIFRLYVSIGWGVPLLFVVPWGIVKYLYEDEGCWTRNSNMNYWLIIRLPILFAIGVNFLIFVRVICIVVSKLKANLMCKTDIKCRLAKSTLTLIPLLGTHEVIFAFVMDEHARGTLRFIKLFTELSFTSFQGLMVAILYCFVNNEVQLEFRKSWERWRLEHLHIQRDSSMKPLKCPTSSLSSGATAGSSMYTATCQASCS

glucagon receptor = target: T3, glucagon receptor (Homo sapiens, UniProt P47871); test: cAMP synthesis functional assay (firefly luciferase reporter in HEK293 cells), glucagon receptor
T3 construct: expressed in transfected cells; host or cells: HEK293
T3 sequence (P47871 26-477): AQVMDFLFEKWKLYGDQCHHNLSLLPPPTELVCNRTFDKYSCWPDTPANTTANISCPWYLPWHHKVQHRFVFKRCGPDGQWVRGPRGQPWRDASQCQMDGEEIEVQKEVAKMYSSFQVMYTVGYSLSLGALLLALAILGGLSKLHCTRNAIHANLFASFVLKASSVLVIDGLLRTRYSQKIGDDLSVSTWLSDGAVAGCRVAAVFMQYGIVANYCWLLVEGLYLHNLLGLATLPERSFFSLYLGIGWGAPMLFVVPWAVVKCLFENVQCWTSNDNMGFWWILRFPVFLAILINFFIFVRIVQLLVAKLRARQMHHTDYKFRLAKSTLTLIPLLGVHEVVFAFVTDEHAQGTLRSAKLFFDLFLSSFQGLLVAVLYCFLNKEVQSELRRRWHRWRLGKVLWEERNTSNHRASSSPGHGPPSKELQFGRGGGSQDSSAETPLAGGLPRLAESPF

[1] = Table 1, relative to the native hormone of the indicated receptor
[2] = GIP Receptor EC50, cAMP luciferase reporter assay as in Example 16
[3] = relative to the standard (Std.) EC50 of the same run

- GIP Receptor relative activity (GIP receptor; [1]): 2.81%
- GLP-1 Receptor relative activity (GLP-1 receptor; [1]): 1.27%
- Glucagon Receptor relative activity (glucagon receptor; [1]): 3.19%
Compound: CC[C@H](C)[C@H](NC(=O)[C@H](CO)NC(=O)[C@H](Cc1ccc(O)cc1)NC(=O)[C@H](CC(=O)O)NC(=O)[C@H](CO)NC(=O)[C@@H](NC(=O)[C@H](Cc1ccccc1)NC(=O)[C@@H](NC(=O)CNC(=O)[C@H](CCC(=O)O)NC(=O)[C@H](C)NC(=O)[C@@H](N)Cc1c[nH]cn1)[C@@H](C)O)[C@@H](C)O)C(=O)N[C@@H](Cc1ccc(O)cc1)C(=O)N[C@@H](CCSC)C(=O)N[C@@H](CC(=O)O)C(=O)N[C@H]1CCC(=O)NCCCC[C@@H](C(=O)N[C@@H](CC(=O)O)C(=O)N[C@@H](Cc2ccccc2)C(=O)N[C@H](C(=O)N[C@@H](CC(N)=O)C(=O)N[C@@H](Cc2c[nH]c3ccccc23)C(=O)N[C@@H](CC(C)C)C(=O)N[C@@H](CC(C)C)C(=O)N[C@@H](C)C(=O)N[C@@H](CCC(N)=O)C(N)=O)C(C)C)NC(=O)[C@H](CCC(N)=O)NC(=O)[C@H](Cc2c[nH]cn2)NC(=O)[C@H]([C@@H](C)CC)NC1=O [mt-97] (H-HAEGTFTSDYSIYMDEIHQKDFVNWLLAQ-NH2; lactam 16-20; N-terminus assumed)

Compound: CCCCCCCCCCCCCCCCCC(=O)NCCCC[C@H](NC(=O)[C@H](CC(=O)O)NC(=O)[C@H](CO)NC(=O)[C@@H](NC(=O)[C@H](Cc1ccccc1)NC(=O)[C@@H](NC(=O)CNC(=O)[C@H](CCC(=O)O)NC(=O)C(C)(C)NC(=O)[C@@H](N)Cc1ccc(O)cc1)[C@@H](C)O)[C@@H](C)O)C(=O)N[C@@H](CO)C(=O)N[C@H](C(=O)N[C@@H](Cc1ccc(O)cc1)C(=O)N[C@@H](CC(C)C)C(=O)N[C@@H](CC(=O)O)C(=O)N[C@@H](CCCCN)C(=O)N[C@@H](CCC(N)=O)C(=O)N[C@@H](C)C(=O)N[C@@H](C)C(=O)NC(C)(C)C(=O)N[C@@H](CCC(=O)O)C(=O)N[C@@H](Cc1ccccc1)C(=O)N[C@H](C(=O)N[C@@H](CC(N)=O)C(=O)N[C@@H](Cc1c[nH]c2ccccc12)C(=O)N[C@@H](CC(C)C)C(=O)N[C@@H](CC(C)C)C(=O)N[C@@H](C)C(=O)NCC(=O)NCC(=O)N1CCC[C@H]1C(=O)N[C@@H](CO)C(=O)N[C@@H](CO)C(=O)NCC(=O)N[C@@H](C)C(=O)N1CCC[C@H]1C(=O)N1CCC[C@H]1C(=O)N1CCC[C@H]1C(=O)N[C@@H](CO)C(N)=O)C(C)C)[C@@H](C)CC [mt-271] (H-Y[Aib]EGTFTSDK(Stearoyl)SIYLDKQAA[Aib]EFVNWLLAGGPSSGAPPPS-NH2; N-terminus assumed)
- EC50 (GIP receptor; [2]): 5.6 pM
- GIP Receptor relative activity (GIP receptor; [3]): 142.86%
- EC50 (GLP-1 receptor; GLP-1 Receptor EC50, cAMP luciferase reporter assay as in Example 16): 0.0106 nM
- GLP-1 Receptor relative activity (GLP-1 receptor; [3]): 185.85%
- EC50 (glucagon receptor; Glucagon Receptor EC50, cAMP luciferase reporter assay as in Example 16): 113 nM
- Glucagon Receptor relative activity (glucagon receptor; [3]): 0.17%

Compound: CC[C@H](C)[C@H](NC(=O)[C@H](Cc1ccccc1)NC(=O)[C@H](CCC(=O)O)NC(=O)[C@@H]1CCCCNC(=O)CC[C@H](NC(=O)[C@H](CC(=O)O)NC(=O)[C@H](CC(C)C)NC(=O)[C@H](Cc2ccc(O)cc2)NC(=O)[C@H](CCCCN)NC(=O)[C@H](CO)NC(=O)[C@H](Cc2ccc(O)cc2)NC(=O)[C@H](CC(=O)O)NC(=O)[C@H](CO)NC(=O)[C@@H](NC(=O)[C@H](Cc2ccccc2)NC(=O)[C@@H](NC(=O)CNC(=O)[C@H](CCC(N)=O)NC(=O)[C@H](CO)NC(=O)[C@@H](N)Cc2ccc(O)cc2)[C@@H](C)O)[C@@H](C)O)C(=O)N[C@@H](CCC(N)=O)C(=O)N[C@@H](C)C(=O)N[C@@H](C)C(=O)N1)C(=O)N[C@@H](C)C(=O)N[C@@H](Cc1c[nH]c2ccccc12)C(=O)N[C@@H](CC(C)C)C(=O)N[C@@H](CCSC)C(=O)N[C@@H](CC(N)=O)C(=O)NCC(=O)NCC(=O)N1CCC[C@H]1C(=O)N[C@@H](CO)C(=O)N[C@@H](CO)C(=O)NCC(=O)N[C@@H](C)C(=O)N1CCC[C@H]1C(=O)N1CCC[C@H]1C(=O)N1CCC[C@H]1C(=O)N[C@@H](CO)C(N)=O [mt-120] (H-YSQGTFTSDYSKYLDEQAAKEFIAWLMNGGPSSGAPPPS-NH2; lactam 16-20; N-terminus assumed)
- GIP Receptor relative activity (GIP receptor; [1]): 1.81%
- GLP-1 Receptor relative activity (GLP-1 receptor; [1]): 13.45%
- Glucagon Receptor relative activity (glucagon receptor; [1]): 259.46%

Compound: CC(C)C[C@H](NC(=O)[C@H](CC(C)C)NC(=O)[C@H](Cc1c[nH]c2ccccc12)NC(=O)[C@H](CC(N)=O)NC(=O)[C@@H](NC(=O)[C@H](Cc1ccccc1)NC(=O)[C@H](CCC(=O)O)NC(=O)[C@@H]1CCCCNC(=O)CC[C@H](NC(=O)[C@H](CC(=O)O)NC(=O)[C@H](CC(C)C)NC(=O)[C@H](Cc2ccc(O)cc2)NC(=O)[C@H](CCCCN)NC(=O)[C@H](CO)NC(=O)[C@H](Cc2ccc(O)cc2)NC(=O)[C@H](CC(=O)O)NC(=O)[C@H](CO)NC(=O)[C@@H](NC(=O)[C@H](Cc2ccccc2)NC(=O)[C@@H](NC(=O)CNC(=O)[C@H](CCC(N)=O)NC(=O)[C@H](CO)NC(=O)[C@@H](N)Cc2ccc(O)cc2)[C@@H](C)O)[C@@H](C)O)C(=O)N[C@@H](CCC(N)=O)C(=O)N[C@@H](C)C(=O)N[C@@H](C)C(=O)N1)C(C)C)C(=O)N[C@@H](C)C(=O)NCC(=O)NCC(=O)N1CCC[C@H]1C(=O)N[C@@H](CO)C(=O)N[C@@H](CO)C(=O)NCC(=O)N[C@@H](C)C(=O)N1CCC[C@H]1C(=O)N1CCC[C@H]1C(=O)N1CCC[C@H]1C(=O)N[C@@H](CO)C(N)=O [mt-127] (H-YSQGTFTSDYSKYLDEQAAKEFVNWLLAGGPSSGAPPPS-NH2; lactam 16-20; N-terminus assumed)
- GIP Receptor relative activity (GIP receptor; [1]): 10.51%
- GLP-1 Receptor relative activity (GLP-1 receptor; [1]): 87.75%
- EC50 (glucagon receptor; Glucagon Receptor EC50, nM, Table 1): 0.044 nM
- Glucagon Receptor relative activity (glucagon receptor; [1]): 718.39%

Compound: mt-205: glucagon analog peptide, C-terminal amide (Y[Aib]EGTFTSDYSIYLDEQAAKEFVNWLLAGRPSSGAPPPSC(PEG 40 kDa)-NH2; lactam 16-20)
- GIP Receptor relative activity (GIP receptor; [1]): 1.74%
- EC50 (GIP receptor; read-out: GIP Receptor EC50, Table 1): 1660 pM
- GLP-1 Receptor relative activity (GLP-1 receptor; [1]): 14.22%
- EC50 (GLP-1 receptor; read-out: GLP-1 Receptor EC50, Table 1): 0.204 nM
- Glucagon Receptor relative activity (glucagon receptor; [1]): 0.01%
- EC50 (glucagon receptor; read-out: Glucagon Receptor EC50, Table 1): 672 nM

Compound: CC[C@H](C)[C@H](NC(=O)[C@H](CO)NC(=O)[C@H](Cc1ccc(O)cc1)NC(=O)[C@H](CC(=O)O)NC(=O)[C@H](CO)NC(=O)[C@@H](NC(=O)[C@H](Cc1ccccc1)NC(=O)[C@@H](NC(=O)CNC(=O)[C@H](CCC(=O)O)NC(=O)C(C)(C)NC(=O)[C@@H](N)Cc1ccc(O)cc1)[C@@H](C)O)[C@@H](C)O)C(=O)N[C@@H](Cc1ccc(O)cc1)C(=O)N[C@@H](CC(C)C)C(=O)N[C@@H](CC(=O)O)C(=O)N[C@@H](CCCCN)C(=O)N[C@@H](CCC(N)=O)C(=O)N[C@@H](C)C(=O)N[C@@H](C)C(=O)NC(C)(C)C(=O)N[C@@H](CCC(=O)O)C(=O)N[C@@H](Cc1ccccc1)C(=O)N[C@H](C(=O)N[C@@H](CC(N)=O)C(=O)N[C@@H](Cc1c[nH]c2ccccc12)C(=O)N[C@@H](CC(C)C)C(=O)N[C@@H](CC(C)C)C(=O)N[C@@H](C)C(=O)NCC(=O)NCC(=O)N1CCC[C@H]1C(=O)N[C@@H](CO)C(=O)N[C@@H](CO)C(=O)NCC(=O)N[C@@H](C)C(=O)N1CCC[C@H]1C(=O)N1CCC[C@H]1C(=O)N1CCC[C@H]1C(=O)N[C@@H](CO)C(=O)N[C@@H](CCCCN)C(=O)N[C@@H](CS)C(N)=O)C(C)C [mt-340]
- EC50 (GIP receptor; [2]): 2.8 pM
- GIP Receptor relative activity (GIP receptor; [3]): 328.57%
- GLP-1 Receptor relative activity (GLP-1 receptor; [3]): 100.00%
- Glucagon Receptor relative activity (glucagon receptor; [3]): 0.24%
